# Laboratory results as given in US4230702A, “Readily enterally absorbable pharmaceutical compositions of per se poorly enterally absorbable pharmacologically active agents” (priority 1978, dated 1980).
# Like-named read-outs stand apart in the source and are kept apart here.
# How the values were obtained:
# [1] = Renal excretion of carbon-14 labelled progesterone, cumulative urinary 14C; format: in vivo, guinea pig; settings: 20 mg/kg oral; for Cumulative Renal Excretion of Progesterone: guinea pigs
# Description: For determining the renal excretion, a dose of 20 mg/kg of carbon-14 labelled progesterone in the form of solutions in various mixtures of partial glycerides of long chain fatty acids and a comparative formulation wherein the progesterone is suspended in an aqueous tylose solution are administered orally to female guinea pigs having an average body weight of about 300 g. The urine of the animals is collected every 24 hours and the ^14 C-content in equal amounts of the urine is determined. The cumulated amount of excreted material is shown in Table II below in % of the administered dose. The percentage of excreted material is about 83% for the solution of progesterone in Peceol.
# [2] = Blood (serum) level of benzarone, comparison of areas beneath the blood level curves; format: in vivo, rat; settings: 1000 mg/kg oral, rats, solution in Rilanit GMO compared with aqueous suspension, up to 15 hours
# Description: For determining the blood level values, a dose of 1000 mg/kg of benzarone in form of a solution in Rilanit GMO^4) and in form of a suspension in water are administered to rats by means of an oral feeding tube.
# Subsequently every two hours including the 10th hour, 8 animals of each group, and after 15 hours, 4 more animals of each group are sacrificed and their blood is recovered by means of a cordial cut. The amount of benzarone in the serum is determined spectrophotometrically. The measured blood level values are plotted on a graph and the areas beneath the resulting blood level curves are compared.
# [3] = Renal excretion of benzarone, comparison of areas beneath the curves; format: in vivo, rat; settings: 1000 mg/kg oral, rats, solution in Rilanit GMO compared with aqueous suspension, 15 hours
# Description: Furthermore doses of 1000 mg/kg of benzarone in the form of a solution in Rilanit GMO^4) and in form of a suspension in water are orally administered to rats by means of an oral feeding tube. The urine of the animals is collected every 2 hours over a period of 15 hours and the amount of the excreted benzarone therein is determined spectrophotometrically. The measured values are plotted on a graph and the areas beneath the resulting curves are compared.
# [4] = Oral toxicity (LD50) of solutions in partial glycerides versus suspension in aqueous tylose; settings: guinea pig, in vivo, female guinea pigs
# Description: For testing the toxicity, solutions of g-strophanthin, proscillaridin A or medrogestone in various mixtures of mono-and diglycerides of long chain fatty acids and comparative formulations of the same pharmacologically active agents suspended in a tylose solution in water are administered orally to female guinea pigs of 250 to 300 g body weight by means of an oral feeding tube.
# [5] = solution in Peceol (mono, di, and triglycerides of oleic acid), read-out: LD50 in Peceol
# [6] = solution in Witafrol 7470 (mono- and diglycerides of oleic acid), read-out: LD50 in Witafrol 7470
# [7] = suspended in tylose (methylcellulose) solution in water, read-out: LD50 in Tylose
structure (smiles),measurement,setting,value
CC(=O)[C@H]1CC[C@H]2[C@@H]3CCC4=CC(=O)CC[C@]4(C)[C@H]3CC[C@]12C [progesterone],percentage of excreted material,"[1]; female guinea pigs, 14C-progesterone, solution in Peceol, % of the administered dose",about 83%
same,amount of excreted material relative to the suspension in the tylose solution,"[1]; female guinea pigs, solution in Peceol versus tylose suspension",about twice as high
same,Cumulative Renal Excretion of Progesterone,"[1]; Peceol X1, 1. day",46.0 % of the Administered Dose
same,Cumulative Renal Excretion of Progesterone,"[1]; Peceol X1, 2. day",64.6 % of the Administered Dose
same,Cumulative Renal Excretion of Progesterone,"[1]; Peceol X1, 3. day",71.6 % of the Administered Dose
same,Cumulative Renal Excretion of Progesterone,"[1]; Peceol X1, 4. day",76.1 % of the Administered Dose
same,Cumulative Renal Excretion of Progesterone,"[1]; Peceol X1, 5. day",79.1 % of the Administered Dose
same,Cumulative Renal Excretion of Progesterone,"[1]; Peceol X1, 6. day",81.1 % of the Administered Dose
same,Cumulative Renal Excretion of Progesterone,"[1]; Peceol X1, 7. day",82.9 % of the Administered Dose
same,Cumulative Renal Excretion of Progesterone,"[1]; Softigen 701, 1. day",51.6 % of the Administered Dose
same,Cumulative Renal Excretion of Progesterone,"[1]; Softigen 701, 2. day",63.2 % of the Administered Dose
same,Cumulative Renal Excretion of Progesterone,"[1]; Softigen 701, 3. day",66.2 % of the Administered Dose
same,Cumulative Renal Excretion of Progesterone,"[1]; Softigen 701, 4. day",66.9 % of the Administered Dose
same,Cumulative Renal Excretion of Progesterone,"[1]; Softigen 701, 5. day",67.4 % of the Administered Dose
same,Cumulative Renal Excretion of Progesterone,"[1]; Softigen 701, 6. day",67.6 % of the Administered Dose
same,Cumulative Renal Excretion of Progesterone,"[1]; Softigen 701, 7. day",67.7 % of the Administered Dose
same,Cumulative Renal Excretion of Progesterone,"[1]; Tegin 0, 1. day",37.9 % of the Administered Dose
same,Cumulative Renal Excretion of Progesterone,"[1]; Tegin 0, 2. day",48.7 % of the Administered Dose
same,Cumulative Renal Excretion of Progesterone,"[1]; Tegin 0, 3. day",51.6 % of the Administered Dose
same,Cumulative Renal Excretion of Progesterone,"[1]; Tegin 0, 4. day",52.3 % of the Administered Dose
same,Cumulative Renal Excretion of Progesterone,"[1]; Tegin 0, 5. day",52.6 % of the Administered Dose
same,Cumulative Renal Excretion of Progesterone,"[1]; Tegin 0, 6. day",52.8 % of the Administered Dose
same,Cumulative Renal Excretion of Progesterone,"[1]; Tegin 0, 7. day",52.9 % of the Administered Dose
same,Cumulative Renal Excretion of Progesterone,"[1]; Tegomuls X10, 1. day",42.5 % of the Administered Dose
same,Cumulative Renal Excretion of Progesterone,"[1]; Tegomuls X10, 2. day",58.3 % of the Administered Dose
same,Cumulative Renal Excretion of Progesterone,"[1]; Tegomuls X10, 3. day",69.2 % of the Administered Dose
same,Cumulative Renal Excretion of Progesterone,"[1]; Tegomuls X10, 4. day",75.2 % of the Administered Dose
same,Cumulative Renal Excretion of Progesterone,"[1]; Tegomuls X10, 5. day",78.8 % of the Administered Dose
same,Cumulative Renal Excretion of Progesterone,"[1]; Tegomuls X10, 6. day",80.6 % of the Administered Dose
same,Cumulative Renal Excretion of Progesterone,"[1]; Tegomuls X10, 7. day",81.9 % of the Administered Dose
same,Cumulative Renal Excretion of Progesterone,"[1]; Tegomuls X17, 1. day",43.7 % of the Administered Dose
same,Cumulative Renal Excretion of Progesterone,"[1]; Tegomuls X17, 2. day",55.0 % of the Administered Dose
same,Cumulative Renal Excretion of Progesterone,"[1]; Tegomuls X17, 3. day",62.0 % of the Administered Dose
same,Cumulative Renal Excretion of Progesterone,"[1]; Tegomuls X17, 4. day",66.6 % of the Administered Dose
same,Cumulative Renal Excretion of Progesterone,"[1]; Tegomuls X17, 5. day",70.0 % of the Administered Dose
same,Cumulative Renal Excretion of Progesterone,"[1]; Tegomuls X17, 6. day",71.9 % of the Administered Dose
same,Cumulative Renal Excretion of Progesterone,"[1]; Tegomuls X17, 7. day",73.9 % of the Administered Dose
same,Cumulative Renal Excretion of Progesterone,"[1]; Tylose, 1. day",29.7 % of the Administered Dose
same,Cumulative Renal Excretion of Progesterone,"[1]; Tylose, 2. day",39.1 % of the Administered Dose
same,Cumulative Renal Excretion of Progesterone,"[1]; Tylose, 3. day",43.0 % of the Administered Dose
same,Cumulative Renal Excretion of Progesterone,"[1]; Tylose, 4. day",44.0 % of the Administered Dose
same,Cumulative Renal Excretion of Progesterone,"[1]; Tylose, 5. day",44.5 % of the Administered Dose
same,Cumulative Renal Excretion of Progesterone,"[1]; Tylose, 6. day",46.2 % of the Administered Dose
same,Cumulative Renal Excretion of Progesterone,"[1]; Tylose, 7. day",46.4 % of the Administered Dose
"CCc1oc2ccccc2c1C(=O)c1ccc(O)cc1 [benzarone, 2-ethyl-3-(4-hydroxybenzoyl)benzofuran]",increase of the concentration of benzarone in the serum (comparison of areas beneath blood level curves),[2],257%
same,increase of the renal excretion of benzarone (comparison of areas beneath the curves),[3],437%
C[C@@H]1O[C@@H](O[C@@H]2C=C3CC[C@@H]4[C@H](CC[C@]5(C)[C@@H](c6ccc(=O)oc6)CC[C@]45O)[C@@]3(C)CC2)[C@H](O)[C@H](O)[C@H]1O [proscillaridin A],LD50,[4]; [5],7.77 mg/kg
same,LD50,[4]; [6],6.81 mg/kg
same,LD50,[4]; [7],12.3 mg/kg
CC(=O)[C@@]1(C)CC[C@H]2[C@@H]3C=C(C)C4=CC(=O)CC[C@]4(C)[C@H]3CC[C@@]21C [medrogestone],LD50,[4]; [5],850 mg/kg
same,LD50,"[4]; solution in Rilanit GMO (mono- and diglycerides of oleic acid), read-out: LD50 in Rilanit GMO",862 mg/kg
same,LD50,[4]; [7],1470 mg/kg
CC1OC(OC2CC(O)C3(CO)C4C(O)CC5(C)C(C6=CC(=O)OC6)CCC5(O)C4CCC3(O)C2)C(O)C(O)C1O (stereo not shown) [g-strophanthin],LD50,[4]; [5],8.38 mg/kg
same,LD50,[4]; [6],8.28 mg/kg
same,LD50,[4]; [7],34.8 mg/kg
